ChEMBL document CHEMBL3885861, “Open TG-GATES”

Species on record: Rattus norvegicus
Assay: Open TG-GATES - Regimen: Daily Repeat
Assay type: toxicity, organism-based, Sprague-Dawley
Design: regimen Daily Repeat, gender Male, age 6 weeks
Conditions: in vivo, po, route gavage; for APTT / Bas / Eos / Fbg / Hb / Ht / Lym / MCH / MCHC / MCV / Mono / Neu / PT / Plat / RBC / Ret / WBC: tissue Blood; for KIDNEY_L / KIDNEY_R / KIDNEY_TOTAL: tissue Kidney; for LIVER: tissue Liver; for A/G / ALP / ALT / AST / BUN / CRE / Ca / Cl / DBIL / GLC / IP / K / LDH / Na / PL / RALB / TBIL / TC / TG / TP / gamma-GTP: tissue Plasma
[1] = 0 mg/kg, 72 h, dose level Control, time 3 day
[2] = 0 mg/kg, […], dose level Control, time 7 day
[3] = 0 mg/kg, […], dose level Control, time 14 day
[4] = 0 mg/kg, […], dose level Control, time 28 day
[5] = 15 mg/kg, 72 h, dose level Low, time 3 day
[6] = 15 mg/kg, […], dose level Low, time 7 day
[7] = 15 mg/kg, […], dose level Low, time 14 day
[8] = 15 mg/kg, […], dose level Low, time 28 day

## Nc1nc(N)c2nc(-c3ccccc3)c(N)nc2n1
[1]
  TERMINAL_BW: 242.6 g
  APTT: 16.3 s
  Bas: 0.2%
  Eos: 1%
  Fbg: 334.2 mg/dL
  Hb: 13.8 g/dL
  Ht: 40.7%
  Lym: 78.8%
  MCH: 20.8 pg
  MCHC: 33.9%
  MCV: 61.3 fL
  Mono: 2.2%
  Neu: 17.2%
  PT: 13.9 s
  Plat: 128.5 x10_4/uL
  RBC: 664.4 x10_4/ul
  Ret: 6.2%
  WBC: 102.2 x10_2/uL
  KIDNEY_L: 1.1 g
  KIDNEY_R: 1.1 g
  KIDNEY_TOTAL: 2.1 g
  LIVER: 11.1 g
  A/G: 0.9
  ALP: 1605.2 IU/L
  ALT: 41.4 IU/L
  AST: 69.4 IU/L
  BUN: 15 mg/dL
  CRE: 0.2 mg/dL
  Ca: 10.9 mg/dL
  Cl: 105.2 meq/L
  DBIL: 0.01 mg/dL
  GLC: 166 mg/dL
  IP: 7.7 mg/dL
  K: 4.1 meq/L
  LDH: 60.2 IU/L
  Na: 142.6 meq/L
  PL: 152.4 mg/dL
  RALB: 2.6 g/dL
  TBIL: 0.042 mg/dL
  TC: 80.6 mg/dL
  TG: 102.4 mg/dL
  TP: 5.6 g/dL
  gamma-GTP: 1 IU/L
[2]
  TERMINAL_BW: 286.3 g
  APTT: 18 s
  Bas: 0%
  Eos: 0.6%
  Fbg: 302.8 mg/dL
  Hb: 13.9 g/dL
  Ht: 42.9%
  Lym: 78.8%
  MCH: 20.6 pg
  MCHC: 32.5%
  MCV: 63.6 fL
  Mono: 2.6%
  Neu: 17.6%
  PT: 13.3 s
  Plat: 136.4 x10_4/uL
  RBC: 675.8 x10_4/ul
  Ret: 5.9%
  WBC: 94 x10_2/uL
  KIDNEY_L: 1.2 g
  KIDNEY_R: 1.2 g
  KIDNEY_TOTAL: 2.3 g
  LIVER: 13.7 g
  A/G: 0.9
  ALP: 1612.4 IU/L
  ALT: 43.2 IU/L
  AST: 63.4 IU/L
  BUN: 16.2 mg/dL
  CRE: 0.2 mg/dL
  Ca: 11.1 mg/dL
  Cl: 104.4 meq/L
  DBIL: 0.014 mg/dL
  GLC: 186.2 mg/dL
  IP: 7.7 mg/dL
  K: 4.3 meq/L
  LDH: 63.4 IU/L
  Na: 142.4 meq/L
  PL: 179.4 mg/dL
  RALB: 2.7 g/dL
  TBIL: 0.076 mg/dL
  TC: 90.2 mg/dL
  TG: 133 mg/dL
  TP: 5.8 g/dL
  gamma-GTP: 1 IU/L
[3]
  TERMINAL_BW: 328 g
  APTT: 18.4 s
  Bas: 0%
  Eos: 1%
  Fbg: 313.2 mg/dL
  Hb: 14.6 g/dL
  Ht: 44.3%
  Lym: 78.4%
  MCH: 19.5 pg
  MCHC: 33%
  MCV: 59.2 fL
  Mono: 2.6%
  Neu: 18%
  PT: 13.2 s
  Plat: 132.7 x10_4/uL
  RBC: 748 x10_4/ul
  Ret: 3.7%
  WBC: 91.5 x10_2/uL
  KIDNEY_L: 1.2 g
  KIDNEY_R: 1.2 g
  KIDNEY_TOTAL: 2.4 g
  LIVER: 13.8 g
  A/G: 0.8
  ALP: 1497.6 IU/L
  ALT: 34 IU/L
  AST: 60 IU/L
  BUN: 14.6 mg/dL
  CRE: 0.2 mg/dL
  Ca: 10.6 mg/dL
  Cl: 105.6 meq/L
  DBIL: 0.01 mg/dL
  GLC: 191.6 mg/dL
  IP: 7.5 mg/dL
  K: 4 meq/L
  LDH: 60.4 IU/L
  Na: 143 meq/L
  PL: 154.4 mg/dL
  RALB: 2.7 g/dL
  TBIL: 0.068 mg/dL
  TC: 72.8 mg/dL
  TG: 141.6 mg/dL
  TP: 5.9 g/dL
  gamma-GTP: 1 IU/L
[4]
  TERMINAL_BW: 424 g
  APTT: 18 s
  Bas: 0.6%
  Eos: 1.2%
  Fbg: 294.6 mg/dL
  Hb: 15.4 g/dL
  Ht: 46.3%
  Lym: 82.6%
  MCH: 18.8 pg
  MCHC: 33.3%
  MCV: 56.5 fL
  Mono: 2.2%
  Neu: 13.6%
  PT: 13 s
  Plat: 111.3 x10_4/uL
  RBC: 819.6 x10_4/ul
  Ret: 2.3%
  WBC: 87 x10_2/uL
  KIDNEY_L: 1.5 g
  KIDNEY_R: 1.4 g
  KIDNEY_TOTAL: 2.9 g
  LIVER: 16.7 g
  A/G: 0.8
  ALP: 1077.6 IU/L
  ALT: 40 IU/L
  AST: 67.4 IU/L
  BUN: 16 mg/dL
  CRE: 0.2 mg/dL
  Ca: 10.8 mg/dL
  Cl: 104.2 meq/L
  DBIL: 0.012 mg/dL
  GLC: 194.8 mg/dL
  IP: 6.5 mg/dL
  K: 3.8 meq/L
  LDH: 76.4 IU/L
  Na: 143.4 meq/L
  PL: 144.8 mg/dL
  RALB: 2.8 g/dL
  TBIL: 0.066 mg/dL
  TC: 68.2 mg/dL
  TG: 149.6 mg/dL
  TP: 6.3 g/dL
  gamma-GTP: 1 IU/L
[5]
  TERMINAL_BW: 248.4 g
  APTT: 16.1 s
  Bas: 0.2%
  Eos: 0.6%
  Fbg: 310.8 mg/dL
  Hb: 14.1 g/dL
  Ht: 41.7%
  Lym: 78.4%
  MCH: 21.8 pg
  MCHC: 33.8%
  MCV: 64.7 fL
  Mono: 2.2%
  Neu: 18.2%
  PT: 13.8 s
  Plat: 132.9 x10_4/uL
  RBC: 645.4 x10_4/ul
  Ret: 6.8%
  WBC: 109.4 x10_2/uL
  KIDNEY_L: 1.1 g
  KIDNEY_R: 1 g
  KIDNEY_TOTAL: 2.1 g
  LIVER: 11.6 g
  A/G: 0.9
  ALP: 1861.8 IU/L
  ALT: 41.4 IU/L
  AST: 66 IU/L
  BUN: 14.8 mg/dL
  CRE: 0.2 mg/dL
  Ca: 11 mg/dL
  Cl: 105.4 meq/L
  DBIL: 0.01 mg/dL
  GLC: 175.2 mg/dL
  IP: 7.8 mg/dL
  K: 3.8 meq/L
  LDH: 67.2 IU/L
  Na: 142.8 meq/L
  PL: 159.4 mg/dL
  RALB: 2.6 g/dL
  TBIL: 0.042 mg/dL
  TC: 81.4 mg/dL
  TG: 115 mg/dL
  TP: 5.6 g/dL
  gamma-GTP: 1.2 IU/L
[6]
  TERMINAL_BW: 282.4 g
  APTT: 16.7 s
  Bas: 0%
  Eos: 1%
  Fbg: 313.2 mg/dL
  Hb: 13.7 g/dL
  Ht: 42.1%
  Lym: 77.2%
  MCH: 20.1 pg
  MCHC: 32.4%
  MCV: 61.9 fL
  Mono: 2.4%
  Neu: 19.2%
  PT: 13.9 s
  Plat: 123.2 x10_4/uL
  RBC: 679.2 x10_4/ul
  Ret: 5.5%
  WBC: 88.7 x10_2/uL
  KIDNEY_L: 1.2 g
  KIDNEY_R: 1.1 g
  KIDNEY_TOTAL: 2.3 g
  LIVER: 13.1 g
  A/G: 0.8
  ALP: 1439.8 IU/L
  ALT: 39.8 IU/L
  AST: 62.6 IU/L
  BUN: 14.8 mg/dL
  CRE: 0.2 mg/dL
  Ca: 11 mg/dL
  Cl: 104.6 meq/L
  DBIL: 0.016 mg/dL
  GLC: 185 mg/dL
  IP: 7.9 mg/dL
  K: 4 meq/L
  LDH: 60.4 IU/L
  Na: 143.4 meq/L
  PL: 155.6 mg/dL
  RALB: 2.6 g/dL
  TBIL: 0.074 mg/dL
  TC: 75.2 mg/dL
  TG: 137 mg/dL
  TP: 5.7 g/dL
  gamma-GTP: 1.2 IU/L
[7]
  TERMINAL_BW: 340.6 g
  APTT: 18 s
  Bas: 0%
  Eos: 1%
  Fbg: 295.2 mg/dL
  Hb: 14.5 g/dL
  Ht: 44.4%
  Lym: 79.2%
  MCH: 20.2 pg
  MCHC: 32.7%
  MCV: 61.6 fL
  Mono: 2.2%
  Neu: 17.2%
  PT: 13.1 s
  Plat: 114.4 x10_4/uL
  RBC: 720.6 x10_4/ul
  Ret: 4.2%
  WBC: 94.6 x10_2/uL
  KIDNEY_L: 1.3 g
  KIDNEY_R: 1.2 g
  KIDNEY_TOTAL: 2.5 g
  LIVER: 14.6 g
  A/G: 0.9
  ALP: 1252.8 IU/L
  ALT: 40.2 IU/L
  AST: 62.6 IU/L
  BUN: 16.2 mg/dL
  CRE: 0.2 mg/dL
  Ca: 10.4 mg/dL
  Cl: 105 meq/L
  DBIL: 0.012 mg/dL
  GLC: 180.2 mg/dL
  IP: 7.5 mg/dL
  K: 3.8 meq/L
  LDH: 58 IU/L
  Na: 143.4 meq/L
  PL: 141.6 mg/dL
  RALB: 2.7 g/dL
  TBIL: 0.068 mg/dL
  TC: 67.4 mg/dL
  TG: 111.6 mg/dL
  TP: 5.8 g/dL
  gamma-GTP: 1 IU/L
[8]
  TERMINAL_BW: 410.6 g
  APTT: 18.6 s
  Bas: 0.2%
  Eos: 1.2%
  Fbg: 294.8 mg/dL
  Hb: 15.6 g/dL
  Ht: 46.4%
  Lym: 78.6%
  MCH: 18.9 pg
  MCHC: 33.6%
  MCV: 56.3 fL
  Mono: 1.8%
  Neu: 17.6%
  PT: 13.4 s
  Plat: 111.2 x10_4/uL
  RBC: 825 x10_4/ul
  Ret: 2.1%
  WBC: 89.6 x10_2/uL
  KIDNEY_L: 1.4 g
  KIDNEY_R: 1.4 g
  KIDNEY_TOTAL: 2.8 g
  LIVER: 15.5 g
  A/G: 0.8
  ALP: 1186.2 IU/L
  ALT: 35.6 IU/L
  AST: 63.4 IU/L
  BUN: 16.2 mg/dL
  CRE: 0.3 mg/dL
  Ca: 10.7 mg/dL
  Cl: 104.6 meq/L
  DBIL: 0.01 mg/dL
  GLC: 187.6 mg/dL
  IP: 6.6 mg/dL
  K: 3.9 meq/L
  LDH: 54.4 IU/L
  Na: 143 meq/L
  PL: 140.4 mg/dL
  RALB: 2.7 g/dL
  TBIL: 0.06 mg/dL
  TC: 69.6 mg/dL
  TG: 123 mg/dL
  TP: 6 g/dL
  gamma-GTP: 1 IU/L
